This note sets out measurements from PubChem BioAssay (NCI).

Test systems include DLD-1 colon; HOP-18 NSCLC; KM20L2 colon; LXFL 529 NSCLC; RXF-631 renal; SNB-78 CNS; M19-MEL melanoma; P388 leukemia; SN12K1 renal; XF 498 CNS; P388/ADR leukemia; DMS 114 small cell lung.
Common to all, as to assay: NCI tumour cell line growth inhibition, 48 h

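Cells were grown in 96-well plates and exposed to each compound for 48 hours at five concentrations; endpoints were interpolated linearly between bracketing concentrations, or set to the highest concentration if not reached. Definition used: TGI = concentration required for complete inhibition of growth.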

As to `CCOC(=O)C1CCn2c(nc3c(=O)n(C)c(=O)n(C)c32)S1` (configuration not stated), the TGI in the assay with DLD-1 colon, in the assay with HOP-18 NSCLC, in the assay with KM20L2 colon, in the assay on LXFL 529 NSCLC, with RXF-631 renal and with SNB-78 CNS was more than 100 µM throughout.
For the compound `N/C(=N\N=C/c1cc(Cl)cc(Cl)c1O)NO`, the TGI is more than 100 µM in the assay with DLD-1 colon; more than 100 µM in the assay with HOP-18 NSCLC; 30.2 µM with KM20L2 colon; 27 µM with M19-MEL melanoma; 1490 nM in the assay on P388 leukemia; 6.93 µM in the assay on SN12K1 renal. Also, the TGI in the assay on SNB-78 CNS is more than 100 µM; with XF 498 CNS it was 6.45 µM.
`COc1cc(C2c3cc4c(cc3[C@@H](Nc3ccc(N5CCOCC5)cc3)C3COC(=O)[C@H]23)OCO4)cc(OC)c1O` (some centres not stated): the TGI in the assay on DLD-1 colon was 4.12 µM; in the assay on HOP-18 NSCLC, 6.67 µM; in the assay on KM20L2 colon it was 3.91 µM; in the assay on M19-MEL melanoma it was 22.8 µM; in the assay on P388 leukemia it was 1010 nM; in the assay with P388/ADR leukemia it was 1.07 µM. Besides, the values for the TGI with SN12K1 renal and in the assay with XF 498 CNS were 3.6 µM and 4.23 µM, respectively.
On to `Cc1cc(C)c(N)c(C)c1N`, for which the TGI in the assay on DLD-1 colon, with DMS 114 small cell lung, with HOP-18 NSCLC, in the assay with KM20L2 colon, with LXFL 529 NSCLC and in the assay on M19-MEL melanoma was more than 100 µM throughout. The TGI in the assay with SNB-78 CNS is more than 100 µM.
On to `Nc1nc(SCc2ccccc2[N+](=O)[O-])c2[nH]cnc2n1`, for which the TGI in the assay on DLD-1 colon, in the assay on KM20L2 colon, in the assay on LXFL 529 NSCLC, in the assay with M19-MEL melanoma and in the assay with SNB-78 CNS was more than 100 µM each time.
Regarding `CC[S+](C)c1ccc(-c2c3nc(c(-c4ccc([S+](C)CC)cc4)c4ccc([nH]4)c(-c4ccc([S+](C)CC)cc4)c4nc(c(-c5ccc([S+](C)CC)cc5)c5ccc2[nH]5)C=C4)C=C3)cc1` (configuration not stated), the TGI with KM20L2 colon is more than 100 µM; in the assay on LXFL 529 NSCLC it was more than 100 µM; with M19-MEL melanoma it was more than 100 µM; in the assay on SNB-78 CNS, more than 100 µM; in the assay with XF 498 CNS, 8.31 µM.
In the case of `O=C(NN1C(=O)C(Cl)C1c1ccc([N+](=O)[O-])cc1)c1ccccc1O` (configuration not stated), the TGI in the assay with DMS 114 small cell lung, in the assay on KM20L2 colon, in the assay on LXFL 529 NSCLC, in the assay with M19-MEL melanoma and in the assay with XF 498 CNS was more than 100 µM each time.
Turning to `CC1=NN(C(=O)c2ccccc2)C(=O)C1N=Nc1ccccc1C(=O)O` (configuration not stated), the TGI in the assay on DLD-1 colon is more than 100 µM; in the assay with DMS 114 small cell lung it was more than 100 µM; with HOP-18 NSCLC, more than 100 µM; in the assay with KM20L2 colon, more than 100 µM; in the assay with M19-MEL melanoma it was more than 100 µM; with P388 leukemia it was more than 46300 nM. Also, the TGI in the assay with P388/ADR leukemia is more than 44.7 µM; with SN12K1 renal it was more than 100 µM; with XF 498 CNS, 69.9 µM.
Take `CCOC(=O)CCc1c(C)c2c(O)cc(O)cc2oc1=O`: the TGI in the assay with DLD-1 colon was more than 100 µM; in the assay on HOP-18 NSCLC it was more than 100 µM; in the assay with KM20L2 colon, more than 100 µM; with M19-MEL melanoma, more than 100 µM; with P388 leukemia, more than 100000 nM; with P388/ADR leukemia, more than 100 µM. The TGI in the assay with SN12K1 renal, with SNB-78 CNS and with XF 498 CNS was more than 100 µM in each case.
